Data published in patent US6951647B2, “T cell binding ligand peptides and method of inducing a cellular immune response” (Cel-Sci Corporation, priority 2001, dated 2005).
Values joined by “and” are separate entries in the source; they are usually repeats but may differ in a detail not shown here. Identical values can stand only once.

Key:
modified HGP-30 = experiment: ELISA antibody screening of sera of immunized mice on modified HGP-30; type: in vivo; details: for ELISA test antigen Modified HGP-30: day 42 test bleeding
Experimental: Mice in groups (5-10 animals per group as designated) are immunized with the LEAPS constructs (25 μg/dose) of SEQ ID NO's:37, 38 and 39, in 0.2 mL emulsified 1:1 with adjuvant (Seppic's ISA-51 or Corixa's microfluidized MPL S/E) on days 0 and 14. Mice are evaluated by Delayed Type of Hypersensitivity (DTH) by inoculation on day 26 with 20 μl of a solution of saline or mH (SEQ ID NO:6) (25 μg in saline) in the left or right ear respectively. The DTH response is determined by measurement of the ear thickness 48 hours later and expressed as increase in ear thickness (mm) of experimental ear compared to that of the control ear. Individual animal sera are collected for measurement of antibody on day 28, 42, 63 and 77. Sera from individual animals and group pools are evaluated for specific anti-mH antibody, for total antibody, IgG1, IgG2a and IgG3 antibody isotype and cross clade titer at selected time points as indicated. […]

D Clade [1] = experiment: ELISA cross clade recognition by sera of immunized mice, D Clade; type: in vivo; details: day 42 test bleeding, individual mouse
Peptide G [2] = experiment: Specificity analysis for the TCBL carrier, ELISA plates coated with Peptide G; type: in vivo, Mice; details: individual animal
Peptide G [3] = experiment: as above; type: in vivo, Mice; details: for A 490 1:200 dilution on plates coated with Peptide G: Average
Experimental: (§1) Mice in groups (5-10 animals per group as designated) are immunized with the LEAPS constructs (25 μg/dose) of SEQ ID NO's:37, 38 and 39, in 0.2 mL emulsified 1:1 with adjuvant (Seppic's ISA-51 or Corixa's microfluidized MPL S/E) on days 0 and 14. Mice are evaluated by Delayed Type of Hypersensitivity (DTH) by inoculation on day 26 with 20 μl of a solution of saline or mH (SEQ ID NO:6) (25 μg in saline) in the left or right ear respectively. The DTH response is determined by measurement of the ear thickness 48 hours later and expressed as increase in ear thickness (mm) of experimental ear compared to that of the control ear. Individual animal sera are collected for measurement of antibody on day 28, 42, 63 and 77. Sera from individual animals and group pools are evaluated for specific anti-mH antibody, for total antibody, IgG1, IgG2a and IgG3 antibody isotype and cross clade titer at selected time points as indicated.
A specificity analysis for the TCBL or KLH carrier for pools of day 42 test bleedings from the G-mH, G′-mH and mH/KLH, using either MPL S/E or ISA51 as adjuvant, was carried out (all sera assayed at a dilution of 1:200) and the results are shown in Table 5. […] This observation is especially significant for vaccines used on a repetitive basis, such as, either a vaccine that requires more frequent intervals between boosters for maintenance of cellular reactivity or as a therapeutic vaccine.

E Clade [4] = experiment: ELISA cross clade recognition by sera of immunized mice, E Clade; type: in vivo; details: for ELISA test antigen E Clade: day 42 test bleeding, Group Average
Experimental: as §1
(§2) The mouse sera for the ELISA was used at a dilution of 1:200. Again, clearly, the construct provides higher signals indicative of higher levels of the antibodies that recognized other clades besides the parental one (Clade B) of mH.
(§3) A cross clade analysis for pools of day 42 test bleedings from the same groups as used in Table 3, were obtained and the results are shown in Table 4.

E Clade [5] = experiment: as above; type: in vivo; details: day 42 test bleeding, individual mouse
[6] = tested on: modified HGP-30 (mH, SEQ ID NO:6); experiment: Isotype analysis (ELISA) of anti-mH antibody in sera of immunized mice; type: in vivo; set-up: IgG1 / IgG2a / IgG2b / IgG3: unit not given here; details: for IgG1 / IgG2a / IgG2b / IgG3: ELISA signal, day 42 test bleeding; for Ig1, serial dilution 1:200 / Ig1, serial dilution 1:800 / Ig1, serial dilution 1:3200 / Ig1, serial dilution 1:12800 / Ig1, serial dilution 1:51200 / Ig1, serial dilution 1:204800 / Ig2a, serial dilution 1:200 / Ig2a, serial dilution 1:800 / Ig2a, serial dilution 1:3200 / Ig2a, serial dilution 1:12800 / Ig2a, serial dilution 1:51200 / Ig2a, serial dilution 1:204800 / Ig2b, serial dilution 1:200 / Ig2b, serial dilution 1:800 / Ig2b, serial dilution 1:3200 / Ig2b, serial dilution 1:12800 / Ig2b, serial dilution 1:51200 / Ig2b, serial dilution 1:204800 / Ig3, serial dilution 1:200 / Ig3, serial dilution 1:800 / Ig3, serial dilution 1:3200 / Ig3, serial dilution 1:12800 / Ig3, serial dilution 1:51200 / Ig3, serial dilution 1:204800: day 28 pool
Experimental: as §1
The results of an isotype analysis of day 42 test bleedings with G′-mH (SEQ ID NO:37), G-mH (SEQ ID NO:38), J-mH (SEQ ID NO:39), F-mH (SEQ ID NO:40) and F-HGP-30 (SEQ ID NO:41), are shown in Table 1.
An isotype analysis for pools of day 28 test bleedings G-mH, G′-mH and m-HGP-30/KLH using either MPL S/E or ISA51 as adjuvant, are shown in Table 3.

C Clade = experiment: ELISA cross clade recognition by sera of immunized mice, C Clade; type: in vivo; details: for ELISA test antigen C Clade: day 42 test bleeding
Experimental: as §1, §2, §3

B Clade = experiment: ELISA cross clade recognition by sera of immunized mice, B Clade; type: in vivo; details: for ELISA test antigen B Clade: day 42 test bleeding
Experimental: as §1, §2, §3

D Clade [7] = experiment: ELISA cross clade recognition by sera of immunized mice, D Clade; type: in vivo; details: for ELISA test antigen D Clade: day 42 test bleeding, Group Average
Experimental: as §1, §2, §3

[8] = day 63 test bleeding, sera 1:200, individual mouse
[9] = group without '(with MPL)' (ISA51)

## NGQ EEK AGV VST GLI GGG ATL YSV HQR IDV KDT KEA LEK IEE EQN KS (DGQEEKAGVVSTGLIGGGEAQNTTYL) [SEQ ID NO: 58, Peptide G linked by GGG spacer to modified HGP-30 (mH)]
Modified HGP-30; day 42, first set of groups (animals 4637-4648, 4674-4678), individual animal
  A 490 1:200 dilution on plates coated with modified HGP-30: 0.257 A 490 and 0.571 A 490 and 0.065 A 490 and 0.392 A 490 and 1.008 A 490 and 0.021 A 490
Modified HGP-30; day 42, first set of groups, Average
  A 490 1:200 dilution on plates coated with modified HGP-30: 0.386 A 490
Modified HGP-30; day 42, second set of groups (animals 4662-4673, 4679-4683), individual animal
  A 490 1:200 dilution on plates coated with modified HGP-30: 0.051 A 490 and 0.052 A 490 and 1.102 A 490 and 0.005 A 490 and 0.000 A 490 (2×)
Modified HGP-30; day 42, second set of groups, Average
  A 490 1:200 dilution on plates coated with modified HGP-30: 0.202 A 490
Modified HGP-30; group (A), Group Average
  ELISA test antigen Modified HGP-30: 0.576
Modified HGP-30; group (A), individual mouse
  ELISA test antigen Modified HGP-30: 0.470 and 1.103 and 0.046 and 0.390 and 1.297 and 0.153
Modified HGP-30; group (B), Group Average
  ELISA test antigen Modified HGP-30: 0.394
Modified HGP-30; group (B), individual mouse
  ELISA test antigen Modified HGP-30: 0.187 and 0.188 and 1.848 and 0.145 and 0.000 (2×)
Modified HGP-30; [8]
  ELISA signal on modified HGP-30: 1.831 and 2.453 and 2.530 and 1.740 and 0.398 and 1.240 and 2.665 and 1.014 and 0.444 and 0.304
D Clade [1]; group (A)
  ELISA test antigen D Clade: 0.000
D Clade [1]; group (B)
  ELISA test antigen D Clade: 0.005 and 0.006 and 0.000 (4×)
Peptide G [2]; day 42, first set of groups (animals 4637-4648, 4674-4678)
  A 490 1:200 dilution on plates coated with Peptide G: 0.195 A 490 and 0.122 A 490 and 0.092 A 490 and 0.088 A 490 and 0.047 A 490
Peptide G [2]; day 42, second set of groups (animals 4662-4673, 4679-4683)
  A 490 1:200 dilution on plates coated with Peptide G: 0.024 A 490 and 0.044 A 490 and 0.062 A 490 and 0.033 A 490 and 0.060 A 490 and 0.151 A 490
Peptide G [3]; day 42, first set of groups
  A 490 1:200 dilution on plates coated with Peptide G: 0.099 A 490
Peptide G [3]; day 42, second set of groups
  A 490 1:200 dilution on plates coated with Peptide G: 0.062 A 490
Peptide G [3]; day 42 sera at 1:200, Table 5, in words
  Reactivity toward the delivery vehicle TCBL: minimal reactivity
E Clade [4]; group (A)
  ELISA test antigen E Clade: 0.000
E Clade [4]; group (B)
  ELISA test antigen E Clade: 0.000
E Clade [4]; [8]
  ELISA signal on E Clade: 0.000 (8×) and 0.016 and 0.504
E Clade [5]; group (A)
  ELISA test antigen E Clade: 0.000
E Clade [5]; group (B)
  ELISA test antigen E Clade: 0.000
[6]; group Average
  IgG1: 1.400
  IgG2a: 0.367
  IgG2b: 0.478
  IgG3: 0.531
[6]; individual mouse
  IgG1: 1.810 and 2.606 and 1.738 and 0.123 and 1.649 and 2.651 and 0.562 and 0.431 and 0.042 and 2.391
  IgG2a: 0.152 and 1.386 and 0.074 and 0.005 and 0.129 and 1.619 and 0.047 and 0.031 and 0.025 and 0.200
  IgG2b: 0.223 and 2.038 and 0.464 and 0.017 and 0.025 and 1.613 and 0.059 and 0.038 and 0.183 and 0.123
  IgG3: 0.388 and 1.817 and 0.033 and −0.013 and 0.152 and 2.378 and 0.000 and 0.106 and 0.089 and 0.358
[6]; [9]
  Ig1, serial dilution 1:200: 0.507
  Ig1, serial dilution 1:800: 0.173
  Ig1, serial dilution 1:3200: 0.025
  Ig1, serial dilution 1:12800: 0.009
  Ig1, serial dilution 1:51200: 0.014
  Ig1, serial dilution 1:204800: 0.000
  Ig2a, serial dilution 1:200: 0.000
  Ig2a, serial dilution 1:800: 0.015
  Ig2a, serial dilution 1:3200: 0.000
  Ig2a, serial dilution 1:12800: 0.003
  Ig2a, serial dilution 1:51200: 0.006
  Ig2a, serial dilution 1:204800: 0.000
  Ig2b, serial dilution 1:200: 0.017
  Ig2b, serial dilution 1:800: 0.000
  Ig2b, serial dilution 1:3200: 0.004
  Ig2b, serial dilution 1:12800: 0.001
  Ig2b, serial dilution 1:51200: 0.000
  Ig2b, serial dilution 1:204800: 0.000
  Ig3, serial dilution 1:200: 0.009
  Ig3, serial dilution 1:800: 0.002
  Ig3, serial dilution 1:3200: 0.000
  Ig3, serial dilution 1:12800: 0.000
  Ig3, serial dilution 1:51200: 0.000
  Ig3, serial dilution 1:204800: 0.000
[6]; with MPL
  Ig1, serial dilution 1:200: 0.103
  Ig1, serial dilution 1:800: 0.022
  Ig1, serial dilution 1:3200: 0.003
  Ig1, serial dilution 1:12800: 0.000
  Ig1, serial dilution 1:51200: 0.000
  Ig1, serial dilution 1:204800: 0.000
  Ig2a, serial dilution 1:200: 0.248
  Ig2a, serial dilution 1:800: 0.048
  Ig2a, serial dilution 1:3200: 0.000
  Ig2a, serial dilution 1:12800: 0.000
  Ig2a, serial dilution 1:51200: 0.002
  Ig2a, serial dilution 1:204800: 0.000
  Ig2b, serial dilution 1:200: 0.147
  Ig2b, serial dilution 1:800: 0.026
  Ig2b, serial dilution 1:3200: 0.022
  Ig2b, serial dilution 1:12800: 0.006
  Ig2b, serial dilution 1:51200: 0.007
  Ig2b, serial dilution 1:204800: 0.018
  Ig3, serial dilution 1:200: 0.265
  Ig3, serial dilution 1:800: 0.044
  Ig3, serial dilution 1:3200: 0.006
  Ig3, serial dilution 1:12800: 0.001
  Ig3, serial dilution 1:51200: 0.000
  Ig3, serial dilution 1:204800: 0.000
C Clade; group (A), Group Average
  ELISA test antigen C Clade: 0.018
C Clade; group (A), individual mouse
  ELISA test antigen C Clade: 0.000 (4×) and 0.004 and 0.104
C Clade; group (B), Group Average
  ELISA test antigen C Clade: 0.009
C Clade; group (B), individual mouse
  ELISA test antigen C Clade: 0.003 (2×) and 0.000 (3×) and 0.050
C Clade; [8]
  ELISA signal on C Clade: 0.125 and 0.359 and 0.238 and 0.047 and 0.005 and 0.076 and 0.643 and 0.000 (3×)
B Clade; group (A), Group Average
  ELISA test antigen B Clade: 0.005
B Clade; group (A), individual mouse
  ELISA test antigen B Clade: 0.000 (5×) and 0.028
B Clade; group (B), Group Average
  ELISA test antigen B Clade: 0.022
B Clade; group (B), individual mouse
  ELISA test antigen B Clade: 0.000 (3×) and 0.006 and 0.079 and 0.046
B Clade; [8]
  ELISA signal on B Clade: 0.000 (6×) and 0.316 and 0.148 and 0.006 and 0.230
D Clade [7]; group (A)
  ELISA test antigen D Clade: 0.000
D Clade [7]; group (B)
  ELISA test antigen D Clade: 0.002
D Clade [7]; [8]
  ELISA signal on D Clade: 0.025 and 0.646 and 0.000 (6×) and 0.001 and 0.016
